“And” between values parts separate entries of the source, which are not always exact repeats. Equal values may be shown once.
Tested on: adolescents with Single Ventricle Heart Disease who underwent Fontan palliation
Test: FALD study (FUEL Extension): Enhanced Liver Fibrosis (ELF) score from serum HA, PIIINP, TIMP-1
Format: in vivo, human
Design: key to Baseline ELF, Mean (SD) / ELF Score, Post Baseline: ELF score: <7.7 none/mild, 7.7-9.8 moderate, 9.8-11.3 severe, >11.3 cirrhosis
Text: The FALD study, ClinicalTrials.gov Identifier: NCT03430583, which is incorporated herein by reference in its entirety, was an open-label extension study that integrated with the FUEL Extension Trial. […] Both the U− cohort and the U+ cohort had liver stiffness measured by ultrasound and MR elastography (where available), and ELF biomarkers analyzed, as described above. […] The Enhanced Liver Fibrosis (ELF) scores were based on the serum levels of hyaluronic acid (HA), amino-terminal propeptide of type III collagen (PIIINP), and tissue inhibitor of metalloproteinase-1 (TIMP-1). Testing was performed by the FUEL-OLE Central Laboratory using the serum samples. In accordance with prior studies, we assigned those patients with scores of <7.7 to the no-fibrosis or mild fibrosis group, 7.7-9.8 to the moderate fibrosis group, 9.8-11.3 to the severe fibrosis group, and >11.3 to the cirrhosis group. The primary outcome measure of the FALD study was the range of liver stiffness in adolescents with Single Ventricle Heart Disease who underwent Fontan palliation. Secondary outcome measures included the effect of drug therapy on liver stiffness, and the effect of drug therapy on Enhanced Liver Fibrosis (ELF) score. See Clinical Trials.gov identifier NCT03430583, at p. 3. It is to be understood that present invention contemplates udenafil drug products that are therapeutically equivalent to the udenafil drug products of the present invention.

[1] = Cohort U+ & U− Pooled, baseline ELF Cirrhosis (N 17)
[2] = Cohort U+ & U− Pooled, baseline ELF moderate fibrosis (N 20)
[3] = Cohort U+ & U− Pooled, baseline ELF moderate fibrosis (N 20), listed as udenafil
[4] = Cohort U+ & U− Pooled, baseline ELF severe fibrosis (N 36)
[5] = Cohort U+, baseline ELF Cirrhosis (N 9)
[6] = Cohort U+, baseline ELF moderate fibrosis (N 8)
[7] = Cohort U+, baseline ELF severe fibrosis (N 15)
[8] = Cohort U− (udenafil for 52 weeks), individual subject
[9] = Cohort U−, baseline ELF Cirrhosis (N 8)
[10] = Cohort U−, baseline ELF moderate fibrosis (N 12)
[11] = Cohort U−, baseline ELF moderate fibrosis (N 12), listed as udenafil
[12] = Cohort U−, baseline ELF severe fibrosis (N 21)
[13] = FALD, cohort U+ (78 weeks udenafil)

CCCOc1ccc(S(=O)(=O)NCCC2CCCN2C)cc1-c1nc2c(CCC)nn(C)c2c(=O)[nH]1 (stereo not shown) [Udenafil, udenafil]
Patients with Improved ELF fibrosis category (Cohort U+ & U− Pooled, 41/73): 41/73 (56%) Improved
Patients with post baseline ELF score Mild, n (%) [1]: 0
Patients with post baseline ELF score Sev, n (%) [1]: 13 (76%)
Patients with post baseline ELF score Sev, n (%) (Cohort U+ & U− Pooled, baseline ELF Cirrhosis (N 17), listed as udenafil): 6
Patients with post baseline ELF score Mild, n (%) [2]: 1 (5%)
Patients with post baseline ELF score Sev, n (%) [2]: 8 (40%)
Patients with post baseline ELF score Mild, n (%) [3]: 1
Patients with post baseline ELF score Sev, n (%) [3]: 8
Patients with post baseline ELF score Mild, n (%) [4]: 0
Patients with post baseline ELF score Sev, n (%) [4]: 13 (36%)
Patients with post baseline ELF score Sev, n (%) (Cohort U+ & U− Pooled, baseline ELF severe fibrosis (N 36), listed as udenafil): 8
Patients with Improved ELF fibrosis category (Cohort U+, 19/32): 19/32 (59%) Improved
Patients with post baseline ELF score Mild, n (%) [5]: 0
Patients with post baseline ELF score Sev, n (%) [5]: 7 (78%)
Patients with post baseline ELF score Sev, n (%) (Cohort U+, baseline ELF Cirrhosis (N 9), listed as udenafil): 7
Patients with post baseline ELF score Mild, n (%) [6]: 0
Patients with post baseline ELF score Sev, n (%) [6]: 0
Patients with post baseline ELF score Mild, n (%) [7]: 0
Patients with post baseline ELF score Sev, n (%) [7]: 5 (33%)
Patients with post baseline ELF score Sev, n (%) (Cohort U+, baseline ELF severe fibrosis (N 15), listed as udenafil): 5
ELF Score, % Change from Baseline [8]: −7.61% and −11.19% and −20.06% and −15.92% and 10.85% and 9.365%
ELF Score, Change from Baseline [8]: −0.78 and −1.22 and −2.03 and −1.85 and 0.97 and 0.9 and 0.26
ELF Score, Post Baseline (Cohort U− (udenafil for 52 weeks), individual subject, Post Baseline visit (52 week)): 9.47 and 9.68 and 8.09 and 9.77 and 9.91 and 10.51 and 9.67
Patients with Improved ELF fibrosis category (Cohort U−, 22/41): 22/41 (54%) Improved
Patients with post baseline ELF score Mild, n (%) [9]: 0
Patients with post baseline ELF score Sev, n (%) [9]: 6 (75%)
Patients with post baseline ELF score Sev, n (%) (Cohort U−, baseline ELF Cirrhosis (N 8), listed as udenafil): 6
Patients with post baseline ELF score Mild, n (%) [10]: 1 (8%)
Patients with post baseline ELF score Sev, n (%) [10]: 8 (67%)
Patients with post baseline ELF score Mild, n (%) [11]: 1
Patients with post baseline ELF score Sev, n (%) [11]: 8
Patients with post baseline ELF score Mild, n (%) [12]: 0
Patients with post baseline ELF score Sev, n (%) [12]: 8 (38%)
Patients with post baseline ELF score Sev, n (%) (Cohort U−, baseline ELF severe fibrosis (N 21), listed as udenafil): 8
ELF Percent Change: Week 52-Baseline, Median (FALD, Total): −7.2%
Week 52 ELF, Median (FALD, Total): 9.7
Baseline ELF, Mean (SD) (FALD, Total (U+ and U−)): 10.4
Week 52 ELF, Mean (SD) (FALD, Total (U+ and U−)): 9.8
ELF Percent Change: Week 52-Baseline, Mean (SD) (FALD, Total, p <0.0001 vs 0): −6.8 (7.69) %
Week 52 ELF, Median (FALD, cohort U+): 9.6
Baseline ELF, Mean (SD) (FALD, cohort U+ (6 months udenafil in FUEL before baseline)): 10.5
Baseline ELF, Mean (SD) (FALD, cohort U+ (6 months udenafil in FUEL before baseline), listed as udenafil): 10.5
Week 52 ELF, Mean (SD) (FALD, cohort U+ (18 months udenafil, 87.5 mg twice daily)): 9.7
Week 52 ELF, Mean (SD) (FALD, cohort U+ (18 months udenafil, 87.5 mg twice daily), listed as udenafil): 9.7
Patients with improved ELF scores [13]: About 94%
Subjects with a decrease (improvement) in ELF score [13]: all but 2 of 31
ELF Percent Change: Week 52-Baseline, Mean (SD) (FALD, cohort U+, p <0.0001 vs 0): −8.0 (5.56) %
Average improvement of ELF score, baseline to week 52 (FALD, cohort U+, p=0.0001): approximately 8%
ELF Percent Change: Week 52-Baseline, Median (FALD, cohort U−): −6.1%
Week 52 ELF, Median (FALD, cohort U−): 9.9
Week 52 ELF, Mean (SD) (FALD, cohort U− (1 year udenafil, 87.5 mg twice daily)): 9.8
Week 52 ELF, Mean (SD) (FALD, cohort U− (1 year udenafil, 87.5 mg twice daily), listed as udenafil): 9.8
Subjects with a decrease (improvement) in ELF score, number (FALD, cohort U− (52 weeks udenafil), of 40 subjects): about 30
Baseline ELF, Mean (SD) (FALD, cohort U− (udenafil-naïve at baseline)): 10.3
Baseline ELF, Mean (SD) (FALD, cohort U− (udenafil-naïve at baseline), listed as udenafil): 10.3
Average improvement of ELF score, baseline to week 52 (FALD, cohort U−, based on paired data): about 5.9%
ELF Percent Change: Week 52-Baseline, Mean (SD) (FALD, cohort U−, p 0.0001 vs 0): −5.9 (8.98) %
Subjects with an improved ELF score (FALD, overall (U+ and U−)): about 84%

— patent US20250186448A1 (Mezzion Pharma Co., Ltd., priority 2021, published 2025)
